Where no end group is shown, it is not given here. The star is where a group is joined. Octanoyl = CCCCCCCC(=O)*
Columns and labels:
[1] = system: cultured spinal neuronal precursor cells; assay: BrdU incorporation into cultured spinal neuronal precursor cells (Cell Proliferation ELISA); type: cell-based, Wistar rat; settings: for BrdU incorporation into cultured spinal neuronal precursor cells, Mean ± S.D.: incubation 12 hours, n=6, Control 100.0 ± 6.7; for concentration that increased the BrdU incorporation into the cells: 12 hours
Source text: Embryos were extracted from a pregnant Wistar rat at day 17 by opening the abdomen under anesthesia. Spinal cords were collected from these embryos and subjected to papain digestion in Hank's balanced salt solution; as a result of subsequent mechanical separation by pipetting, a dispersion of embryonic spinal cord cells was obtained. After being filtered and centrifuged, the dispersed cells were suspended in a DMEM medium containing NaHCO3, 5% fetal bovine serum, penicillin (100 U/mL) and streptomycin (100 μg/mL), followed by plating onto laminin-coated 96-well multi-plates at 10^5 cells per well. After incubation for 4 days, 5-bromo-2'-deoxyuridine (BrdU) (10 μM) was added and incubation was conducted for 6 hours, followed by addition of rat ghrelin (0.003-300 nM) and subsequent incubation for 12 hours. After the end of incubation, the cells were recovered and using Cell Proliferation ELISA Kit (Roche Diagnostic GmbH, Mannheim, Germany), the amount of BrdU incorporation into the cells was measured to investigate the action of ghrelin on BrdU incorporation. Embryos were extracted from a pregnant Wistar rat at day 16 by opening the abdomen under anesthesia. Spinal cords were collected from these embryos and subjected to papain digestion in Hank's balanced salt solution; as a result of subsequent mechanical separation by pipetting, a dispersion of embryonic spinal cord cells was obtained. After being filtered and centrifuged, the dispersed cells were suspended in a DMEM medium containing NaHCO3, 5% fetal bovine serum, penicillin (100 U/mL) and streptomycin (100 μg/mL), followed by plating onto laminin-coated 96-well multi-plates at 10^5 cells per well. After incubation for 4 days, 5-bromo-2'-deoxyuridine (BrdU) (10 μM) was added and incubation was conducted for 6 hours; further, rat ghrelin, ghrelin(1-5)-Lys-NH2 (GSS(n-octanoyl)FLK-NH2), ghrelin(1-7)-Lys-NH2 ([…]) or MK-0677 having the structure indicated below was added in amounts of 0.03-3 nM and incubation was conducted for 12 hours before investigating the action of ghrelin on BrdU incorporation. After the end of incubation, the cells were recovered and using Cell Proliferation ELISA Kit (Roche Diagnostic GmbH, Mannheim, Germany), the amount of BrdU incorporation into the cells was measured to investigate the action of ghrelin on BrdU incorporation.

[2] = system: spinal neuron proliferating action of ghrelin; assay: Effect of L-type calcium channel blocker on the spinal neuron proliferating action of ghrelin; type: cell-based
[3] = system: spinal neuronal precursor cells; assay: Double immunostaining for Nestin or Map2 and BrdU in proliferating spinal cord cells; type: cell-based, Wistar rat; settings: FIG. 3-1 A and B; BrdU in nuclei of Nestin-stained cells, not in Map2-stained cells
Experimental: Double immunostaining was conducted in order to confirm the co-presence of the neuronal precursor cell marker Nestin or the neutron marker Map2 and GHS-R in proliferating cells (cells that were incorporating BrdU).
(§1) Embryos were extracted from a pregnant Wistar rat at day 17 by opening the abdomen under anesthesia. Spinal cords were collected from these embryos and subjected to papain digestion in Hank's balanced salt solution; as a result of subsequent mechanical separation by pipetting, a dispersion of fetal spinal cord cells was obtained. After being filtered and centrifuged, the dispersed cells were suspended in a DMEM medium containing NaHCO3, 5% fetal bovine serum, penicillin (100 U/mL) and streptomycin (100 μg/mL), followed by plating onto laminin-coated 96-well multi-plates at 10^5 cells per well.
To the plates, 5-bromo-2′-deoxyuridine (BrdU) (10 μM) was added and incubation was conducted for 4 days to thereby incorporate the BrdU into the spinal cord cells. The spinal cord cells were fixed with methanol and glacial acetic acid at −20° C. for 20 minutes. After DNA denaturation with 2 M HCl, 2% normal goat serum in PBS was used to perform blocking at room temperature for 30 minutes. […]

[4] = system: spinal neuronal precursor cells; assay: Detection of BrdU positive cells with anti-BrdU antibody; type: cell-based, Wistar rat; settings: FIG. 5, compared to the case where ghrelin was not allowed to act (physiological saline)
Source text: as §1, with “of embryonic” for “of fetal”, “well. After incubation for 4 days, 5-bromo-2′-deoxyuridine (BrdU) (10 μM) was added and incubation was conducted for 6 hours, followed by addition of rat ghrelin (0.003-300 nM) and subsequent incubation for 12 hours.” for “well.”
After the end of incubation, the cells were fixed with methanol and glacial acetic acid, had their DNA denatured with 2 N HCl; thereafter, the BrdU incorporated into the cells was measured by detecting the BrdU positive cells using a rat anti-BrdU monoclonal antibody (1:1000, Abcam, Cambridge, UK) as a primary antibody, and also using Cy™ 3-conjugated donkey anti-rat IgG polyclonal antibody (1:1000, Jackson ImmunoResearch Laboratories, Inc., PA, USA) as a secondary antibody, in order to investigate the action of ghrelin for proliferating spinal precursor cells. […]

[5] = system: rat models with injured spinal cord; assay: Grafting spinal neuronal precursor cells and locally administering ghrelin to rat models with injured spinal cord; type: in vivo, SD rats
Experimental: In accordance with the procedure described in Morino, T. et al, Neuroscience Research, 2003, vol. 46, pp 309-318, the grafting of spinal neuronal precursor cells and local administration of ghrelin to rat models with injured spinal cord were assessed. Male SD rats (8 to 9 weeks old) were anesthetized with pentobarbital and incised in the back to expose a vertebra ([…]). After excising the vertebral arch, a dental drill was used to open a window with a diameter of […], and a stainless steel needle with a silicone rubber fixed thereto was applied vertically, followed by loading of the top with a 20-g weight. Following a compression time of 30 minutes, a damaging drop equivalent to a weight of about 100 g was finally applied from above to construct models suffering a movement disorder in the lower limbs. The animals were divided into three groups: 1) a group under sham operation; 2) a control group with injured spinal cord; and 3) a group with injured spinal cord, treated by cell grafting, and locally administered with ghrelin. The group under sham operation received laminectomy but was simply sutured in the muscle and skin thereafter. After injuring the spinal cord, cultured spinal neuronal precursor cells (10^5 cells/25 μL) were grafted subdurally. Rat ghrelin was administered subdurally in an amount of 1 nmol together with the cells.
Twenty-four hours after the operation, the rats were transferred into a see-through cage and observed for the frequency of their standing up (by 3-minute observation). More specifically, the frequency of the rat standing up (in such a posture that it lifted the upper limbs and supported the body weight only with the lower limbs) was counted to assess the function of its hind limbs.

| Compound | BrdU incorporation into cultured spinal neuronal precursor cells, Mean ± S.D. ([1]; 0.03 nM) | BrdU incorporation into cultured spinal neuronal precursor cells, Mean ± S.D. ([1]; 0.3 nM) | BrdU incorporation into cultured spinal neuronal precursor cells, Mean ± S.D. ([1]; 3 nM) | concentration that increased the BrdU incorporation into the cells ([1]; Example 5, 0.03-3 nM tested) | suppression of the spinal neuron proliferating action of ghrelin [2] | cell type proliferated after treatment (BrdU with Nestin or Map2 double staining) [3] | concentration that increased the BrdU incorporation into the cells ([1]; Example 4, FIG. 4, rat ghrelin 0.003-300 nM tested) | BrdU positive cells detected [4] | frequency of a rat standing up per unit time, 24 hours after operation ([5]; 24 hours after operation, rat ghrelin 1 nmol subdurally together with grafted cells (10^5 cells/25 μL), 3-minute observation, control group with injured spinal cord 1.3 ± 0.6) | function of hind limbs (frequency of standing up), result in words ([5]; combination of cell grafting and local administration of ghrelin) | frequency of a rat standing up per unit time, Initial ([5]; initial, 3-minute observation) |
| --- | --- | --- | --- | --- | --- | --- | --- | --- | --- | --- | --- |
| CC(C)(N)C(=O)N[C@H](COCc1ccccc1)C(=O)N1CCC2(CC1)CN(S(C)(=O)=O)c1ccccc12 [MK-0677, reference compound] | 119.5 ± 4.6 | 112.0 ± 13.9 | 105.8 ± 13.0 | 0.03 nM |  |  |  |  |  |  |  |
| COc1ccc([C@@H]2Sc3ccccc3N(CCN(C)C)C(=O)[C@@H]2OC(C)=O)cc1 [diltiazem] |  |  |  |  | did not suppress |  |  |  |  |  |  |
| GSS(n-octanoyl)FLK-NH2 (GSS(Octanoyl)FLK-NH2; N-terminus assumed; SMILES CCCCCCCC(=O)OC[C@H](NC(=O)[C@H](CO)NC(=O)CN)C(=O)N[C@@H](Cc1ccccc1)C(=O)N[C@@H](CC(C)C)C(=O)N[C@@H](CCCCN)C(N)=O) [Ghrelin (1-5)-Lys-NH2] | 106.9 ± 13.2 | 114.2 ± 11.3 | 103.5 ± 9.6 |  |  |  |  |  |  |  |  |
| GSS(n-octanoyl)FLSPK-NH2 (GSS(Octanoyl)FLSPK-NH2; N-terminus assumed; SMILES CCCCCCCC(=O)OC[C@H](NC(=O)[C@H](CO)NC(=O)CN)C(=O)N[C@@H](Cc1ccccc1)C(=O)N[C@@H](CC(C)C)C(=O)N[C@@H](CO)C(=O)N1CCC[C@H]1C(=O)N[C@@H](CCCCN)C(N)=O) [Ghrelin (1-7)-Lys-NH2] | 108.3 ± 11.6 | 115.9 ± 14.1 | 140.5 ± 41.9 |  |  |  |  |  |  |  |  |
| Ghrelin: rat ghrelin: 28-residue peptide, third serine acylated with n-octanoyl; endogenous ligand of GHS-R1a (SEQ ID NO:3 or 4) (GSS(Octanoyl)FLSPEHQKAQQRKESKKPPAKLQPR) | 112.5 ± 8.7 | 112.0 ± 15.0 | 120.4 ± 7.9 |  |  | has an action for proliferating spinal neuronal precursor cells | ≥ 3 nM | a large number of BrdU positive cells were detected | 8.7 ± 4.2 | led to a recovery in the frequency of standing up | 11.7 ± 2.3 |
